Results from the NIST ThermoML archive (doi:10.1021/acs.jced.8b00132).
Values joined by “and” are separate entries in the source; they are usually repeats but may differ in a detail not shown here. Identical values can stand only once. ± gives the expanded uncertainty stated by the source.

O=C(C(F)(F)C(F)(F)F)C(F)(C(F)(F)F)C(F)(F)F [dodecafluoro-2-methylpentan-3-one]
thermal conductivity (303.37 K, 4422 kPa, Liquid, transient hot wire): 0.05844 ± 0.0012 W/m/K
thermal conductivity (303.37 K, 4436 kPa, Liquid, transient hot wire): 0.05841 ± 0.0012 W/m/K
thermal conductivity (303.38 K, 22430 kPa, Liquid, transient hot wire): 0.06522 ± 0.0013 W/m/K
thermal conductivity (303.38 K, 22431 kPa, Liquid, transient hot wire): 0.06529 ± 0.0014 W/m/K
thermal conductivity (303.46 K, 36 kPa, Gas, transient hot wire): 0.01187 ± 0.0047 W/m/K
thermal conductivity (303.46 K, 38 kPa, Gas, transient hot wire): 0.01198 ± 0.00076 W/m/K
thermal conductivity (303.46 K, 91 kPa, Liquid, transient hot wire): 0.05636 ± 0.0012 W/m/K
thermal conductivity (303.46 K, 92 kPa, Liquid, transient hot wire): 0.05637 ± 0.0012 W/m/K
thermal conductivity (311.78 K, 60 kPa, Gas, transient hot wire): 0.01276 ± 0.0008 W/m/K
thermal conductivity (311.78 K, 63 kPa, Gas, transient hot wire): 0.01265 ± 0.00079 W/m/K
thermal conductivity (311.79 K, 63 kPa, Gas, transient hot wire): 0.01255 ± 0.00078 W/m/K
thermal conductivity (311.95 K, 34 kPa, Gas, transient hot wire): 0.01258 ± 0.00079 W/m/K
thermal conductivity (312.1 K, 61 kPa, Gas, transient hot wire): 0.01276 ± 0.00079 W/m/K
thermal conductivity (312.11 K, 63 kPa, Gas, transient hot wire): 0.0127 ± 0.00079 W/m/K
thermal conductivity (312.12 K, 63 kPa, Gas, transient hot wire): 0.01261 ± 0.00078 W/m/K
thermal conductivity (312.3 K, 34 kPa, Gas, transient hot wire): 0.01253 ± 0.00079 W/m/K
thermal conductivity (312.43 K, 61 kPa, Gas, transient hot wire): 0.01283 ± 0.0008 W/m/K
thermal conductivity (312.43 K, 63 kPa, Gas, transient hot wire): 0.01278 ± 0.0008 W/m/K
thermal conductivity (312.46 K, 63 kPa, Gas, transient hot wire): 0.01291 ± 0.00081 W/m/K
thermal conductivity (312.66 K, 34 kPa, Gas, transient hot wire): 0.01257 ± 0.00079 W/m/K
thermal conductivity (312.81 K, 61 kPa, Gas, transient hot wire): 0.01287 ± 0.00082 W/m/K
thermal conductivity (312.81 K, 63 kPa, Gas, transient hot wire): 0.01297 ± 0.00082 W/m/K
thermal conductivity (312.83 K, 63 kPa, Gas, transient hot wire): 0.01281 ± 0.00081 W/m/K
thermal conductivity (313.06 K, 34 kPa, Gas, transient hot wire): 0.01264 ± 0.0008 W/m/K
thermal conductivity (313.22 K, 61 kPa, Gas, transient hot wire): 0.01297 ± 0.00082 W/m/K
thermal conductivity (313.22 K, 63 kPa, Gas, transient hot wire): 0.01291 ± 0.00081 W/m/K
thermal conductivity (313.24 K, 63 kPa, Gas, transient hot wire): 0.01285 ± 0.0008 W/m/K
thermal conductivity (313.49 K, 34 kPa, Gas, transient hot wire): 0.01265 ± 0.0008 W/m/K
thermal conductivity (315 K, 42 kPa, Gas, hot wire): 0.01266 ± 0.00059 W/m/K and 0.01273 ± 0.0006 W/m/K
thermal conductivity (315.01 K, 24 kPa, Gas, hot wire): 0.01262 ± 0.00059 W/m/K and 0.01267 ± 0.00059 W/m/K
thermal conductivity (315.03 K, 68 kPa, Gas, hot wire): 0.01269 ± 0.0006 W/m/K
thermal conductivity (315.05 K, 69 kPa, Gas, hot wire): 0.01239 ± 0.0006 W/m/K
thermal conductivity (315.06 K, 73 kPa, Gas, hot wire): 0.01282 ± 0.00061 W/m/K
thermal conductivity (315.08 K, 73 kPa, Gas, hot wire): 0.0128 ± 0.0006 W/m/K
thermal conductivity (315.18 K, 42 kPa, Gas, hot wire): 0.0127 ± 0.0006 W/m/K
thermal conductivity (315.19 K, 24 kPa, Gas, hot wire): 0.01259 ± 0.00059 W/m/K
thermal conductivity (315.23 K, 68 kPa, Gas, hot wire): 0.01265 ± 0.00059 W/m/K
thermal conductivity (315.26 K, 68 kPa, Gas, hot wire): 0.01263 ± 0.00059 W/m/K
thermal conductivity (315.26 K, 73 kPa, Gas, hot wire): 0.01275 ± 0.0006 W/m/K and 0.01272 ± 0.0006 W/m/K
thermal conductivity (315.38 K, 24 kPa, Gas, hot wire): 0.01262 ± 0.00059 W/m/K
thermal conductivity (315.39 K, 24 kPa, Gas, hot wire): 0.01261 ± 0.00059 W/m/K
thermal conductivity (315.39 K, 42 kPa, Gas, hot wire): 0.01258 ± 0.00059 W/m/K and 0.0126 ± 0.00059 W/m/K
thermal conductivity (315.45 K, 73 kPa, Gas, hot wire): 0.01275 ± 0.0006 W/m/K and 0.01277 ± 0.0006 W/m/K
thermal conductivity (315.48 K, 67 kPa, Gas, hot wire): 0.01259 ± 0.00059 W/m/K
thermal conductivity (315.48 K, 68 kPa, Gas, hot wire): 0.01258 ± 0.00059 W/m/K
thermal conductivity (315.6 K, 24 kPa, Gas, hot wire): 0.01263 ± 0.00059 W/m/K
thermal conductivity (315.6 K, 42 kPa, Gas, hot wire): 0.01262 ± 0.00059 W/m/K
thermal conductivity (315.61 K, 41 kPa, Gas, hot wire): 0.01258 ± 0.00059 W/m/K
thermal conductivity (315.65 K, 73 kPa, Gas, hot wire): 0.01278 ± 0.0006 W/m/K
thermal conductivity (315.66 K, 73 kPa, Gas, hot wire): 0.01275 ± 0.0006 W/m/K
thermal conductivity (315.7 K, 67 kPa, Gas, hot wire): 0.01258 ± 0.00059 W/m/K and 0.01255 ± 0.00059 W/m/K
thermal conductivity (315.82 K, 24 kPa, Gas, hot wire): 0.01264 ± 0.00059 W/m/K and 0.01263 ± 0.00059 W/m/K
thermal conductivity (315.84 K, 41 kPa, Gas, hot wire): 0.01259 ± 0.00059 W/m/K
thermal conductivity (315.85 K, 42 kPa, Gas, hot wire): 0.01252 ± 0.00059 W/m/K
thermal conductivity (315.87 K, 73 kPa, Gas, hot wire): 0.01277 ± 0.00061 W/m/K and 0.01278 ± 0.00061 W/m/K
thermal conductivity (315.91 K, 67 kPa, Gas, hot wire): 0.01259 ± 0.00059 W/m/K
thermal conductivity (315.92 K, 67 kPa, Gas, hot wire): 0.01258 ± 0.00059 W/m/K
thermal conductivity (321.61 K, 79 kPa, Gas, transient hot wire): 0.01361 ± 0.00085 W/m/K
thermal conductivity (321.66 K, 65 kPa, Gas, transient hot wire): 0.01365 ± 0.00085 W/m/K
thermal conductivity (321.69 K, 64 kPa, Gas, transient hot wire): 0.01346 ± 0.00084 W/m/K
thermal conductivity (321.92 K, 78 kPa, Gas, transient hot wire): 0.01359 ± 0.00084 W/m/K
thermal conductivity (321.97 K, 66 kPa, Gas, transient hot wire): 0.01368 ± 0.0014 W/m/K
thermal conductivity (322.01 K, 64 kPa, Gas, transient hot wire): 0.01355 ± 0.00084 W/m/K
thermal conductivity (322.24 K, 77 kPa, Gas, transient hot wire): 0.01349 ± 0.00084 W/m/K
thermal conductivity (322.3 K, 66 kPa, Gas, transient hot wire): 0.01358 ± 0.001 W/m/K
thermal conductivity (322.35 K, 64 kPa, Gas, transient hot wire): 0.01367 ± 0.00085 W/m/K
thermal conductivity (322.6 K, 77 kPa, Gas, transient hot wire): 0.0137 ± 0.00085 W/m/K
thermal conductivity (322.68 K, 66 kPa, Gas, transient hot wire): 0.01369 ± 0.00099 W/m/K
thermal conductivity (322.7 K, 62 kPa, Gas, transient hot wire): 0.01363 ± 0.00085 W/m/K
thermal conductivity (322.99 K, 77 kPa, Gas, transient hot wire): 0.01375 ± 0.00086 W/m/K
thermal conductivity (323.07 K, 66 kPa, Gas, transient hot wire): 0.01363 ± 0.00085 W/m/K
thermal conductivity (323.09 K, 62 kPa, Gas, transient hot wire): 0.0139 ± 0.00087 W/m/K
thermal conductivity (329.07 K, 105 kPa, Gas, hot wire): 0.01379 ± 0.00065 W/m/K and 0.0138 ± 0.00065 W/m/K
thermal conductivity (329.1 K, 72 kPa, Gas, hot wire): 0.01387 ± 0.00066 W/m/K
thermal conductivity (329.1 K, 73 kPa, Gas, hot wire): 0.01371 ± 0.00065 W/m/K and 0.01367 ± 0.00065 W/m/K
thermal conductivity (329.12 K, 72 kPa, Gas, hot wire): 0.01364 ± 0.00065 W/m/K
thermal conductivity (329.19 K, 27 kPa, Gas, hot wire): 0.01341 ± 0.00063 W/m/K
thermal conductivity (329.19 K, 120 kPa, Gas, hot wire): 0.01389 ± 0.00065 W/m/K
thermal conductivity (329.2 K, 26 kPa, Gas, hot wire): 0.01335 ± 0.00063 W/m/K
thermal conductivity (329.21 K, 120 kPa, Gas, hot wire): 0.01385 ± 0.00065 W/m/K
thermal conductivity (329.22 K, 27 kPa, Gas, hot wire): 0.01411 ± 0.00067 W/m/K
thermal conductivity (329.23 K, 26 kPa, Gas, hot wire): 0.014 ± 0.00066 W/m/K
thermal conductivity (329.23 K, 105 kPa, Gas, hot wire): 0.01384 ± 0.00065 W/m/K and 0.01389 ± 0.00065 W/m/K
thermal conductivity (329.25 K, 72 kPa, Gas, hot wire): 0.01368 ± 0.00064 W/m/K
